Tests used:
human GLP-1R receptor = molecular target: T1, human GLP-1R receptor (Homo sapiens, UniProt P43220, L260F); test: CHOK1 GLP-1R cAMP assay (HTRF); type: cell-based; conditions: CHO-K1 cells stably expressing human GLP-1R
T1 construct: expressed in transfected cells; host or cells: CHO-K1 (ATCC CCL-61)
Method: A cell line stably expressing the human GLP-1R receptor (NM_002062.5, including the naturally-occurring variant Leu260Phe) in a CHO-K1 (ATCC® CCL-61™) was used for assay.
GLP-1 receptor mediated agonist activity was determined in a cell-based assay measuring cyclic adenosine monophosphate (cAMP) levels in cells using Homogeneous Time-Resolved Fluorescence (HTRF) cAMP detection kit (CisBio catalog #62AM4PEC, cAMP Gs Dynamic range kit). The cAMP detection method is based on a competitive immunoassay, in which cAMP produced by the cells and cAMP labeled with the dye d2 compete for binding to a Europium-Cryptate-labeled anti-cAMP antibody. The specific HTRF signal is inversely proportional to the concentration of cAMP.
Compounds were added to individual well in 384 well-assay plates (Greiner #784076) using an Echo (LabCyte) dispenser from 10 mM stocks. Varying concentration of compounds were added to wells, and DMSO was used to normalize each well to a volume of 100 nL. A dose response curve of GLP-1(7-36)NH2 (Bachem H-6795) was included in each run. 5 μL of cAMP concentration response standards are applied in specified wells in the assay plates. Cryo-preserved cells are thawed and resuspended in assay buffer pre-heated to 37° C. (20 mM 2-[4-(2-hydroxyethyl)piperazin-1-yl]ethanesulfonic acid (HEPES) pH 7.4, lx Hank's Balanced Salt Solution (HBSS, Life Technologies #14065) supplemented with 0.1% (w/v) bovine serum albumin (Sigma, A-7030)). Cells were centrifuged at 250*g for 5 min at rt, and resuspended in room tempered assay buffer to a final density of 0.16*10^6 cell/mL, to deliver 800 cells/well. 5 μL of assay buffer with 1 mM 3-isobutyl-1-methylxanthin (IBMX; Sigma cat I-7018) was dispensed per well in assay plates using a multidrop combi (Thermo Scientific) subsequently 5 μL of cell suspension was distributed to relevant wells in the assay using a multidrop dispenser. Assay plates were incubated 20 min at rt.
Detection reagents, Europium-Cryptate-labeled anti-cAMP antibody and cAMP labeled with the dye d2, are diluted in lysis buffer, provided by the manufacturer. 5 μL of each detection reagent is supplemented to each assay well using a multidrop dispenser. Assay plates are incubated in the dark for at least one h. The HTRF signal is measured using the HTRF module (excitation: 337 nm, emission A: 665 nm and emission B: 620 nm) in Pherastar FSX (BMG Labtech).
Raw data were converted to pM cAMP using the cAMP standard curve included in each run. Converted data were further analyzed in Genedata Screener (Genedata) and EC50 determinations were made from agonist dose-response curves analyzed with a curve fitting program using a 4-parameter logistic dose response equation (Equation y=A+((B−A)/1+((C/x)^D))) where A is no stimulation, B is full stimulation, C is the EC50 and D is the Hill slope). The percent effect was determined relative to a saturating concentration of a full GLP-1R agonist (GLP-1(7-36)NH2 has 100% effect in this assay setup).

GLP-1R = molecular target: T2, GLP-1R (Homo sapiens, UniProt P43220); test: EndoC cAMP accumulation assay (HTRF, EndoC-βH1 cells); type: cell-based; conditions: EndoC-βH1 human pancreatic β cell line
T2 construct: host or cells: EndoC-βH1
Excerpt: EndoC cAMP Accumulation Assay
A HTRF cAMP assay (cAMP Gs dynamic kit; CisoBio Cat #62AM4PEJ) was used to identify agonists of GLP-1R in a pancreatic insulinoma cell line (EndoC-PH1). […] EndoC-βH1 cells have detectable GLP-1R messenger ribonucleic acid (mRNA) as detected by quantitative polymerase chain reaction (qPCR). […] The EndoC-βH1 cell line is a valid model of human beta cells and applicable for screenings to identify novel drug target candidates (Mol. Metab., 2018, 8, 144-157). CisBio HTRF cAMP kits are based on a competitive immunoassay using cryptate-labelled anti-cAMP antibody and d2-labeled cAMP. The detection kit is intended for the direct quantitative determination of cAMP. The specific signal (i.e. energy transfer) is inversely proportional to the concentration of cAMP in the standard or sample. Test compounds (10 mM in DMSO) were diluted into assay buffer (HBSS (Sigma #H8264) supplemented with 25 mM HEPES (Gibco #15630, pH 7.4), 0.1% BSA (Sigma #A3059) and 0.5 mM IBMX (Sigma #I7018) included fresh on the day of the assay) into 96 well U-bottom plates (Greiner #650201). Diluted compounds were transferred to ECHO source polypropelene plates (Labcyte #P-05525) and dose response curves were dispensed acoustically using ECHO 550 into black shallow-well u-bottom 384-well HTRF Assay Plates (Corning 4514).
Cryovials of EndoC-H1 (supplied at 1×10e^7 cells/vial) were used directly for screening. The cryovials and were removed from N2(l) and thawed rapidly in a 37° C. water bath. The cells were resuspended in assay buffer and centrifuged at 300 g for 5 min. Cells were resuspended in assay buffer at the appropriate concentration, typically at 12e5 cells per mL (3000 cells per well, dependent on cell batch) and 2.5 μL diluted cells were added to all wells of destination plate by Multidrop combi reagent dispenser (Thermofisher). The plates were incubated at rt for 30 min. The assay was stopped by adding 2.5 μL anti-cAMP cryptate solution to all wells and 2.5 μL cAMP-d2 solution (both diluted 1:20 in lysis buffer) to columns 1-22 by Combi drop. A volume of 2.5 μL cAMP-d2 solution was added to wells E23 to P24 and 2.5 μL lysis buffer added to wells A23 to D24 by multichannel pipette. The plates were incubated at rt for 1 h and read on an Envision plate reader using excitation wavelength of 320 nm and emission of 590 nm and 660 nm.
Raw data from Envision is converted to % DeltaF according to the manufacturer's instructions. Dose response curves are analysed via 4-Parameter Logistical Analysis and assay plate Z′ values obtained. Samples are graphed as percentage (%) activation plots compared to GIP (1-42, Bachem H-5645) with assay window defined by negative control as basal cell cAMP levels and positive control are defined by maximum GIP (82.5 nM) signal. GLP-1 (7-36 amide, Bachem H-6795) dose response curve was included on all plates.

T2 sequence (P43220 24-463): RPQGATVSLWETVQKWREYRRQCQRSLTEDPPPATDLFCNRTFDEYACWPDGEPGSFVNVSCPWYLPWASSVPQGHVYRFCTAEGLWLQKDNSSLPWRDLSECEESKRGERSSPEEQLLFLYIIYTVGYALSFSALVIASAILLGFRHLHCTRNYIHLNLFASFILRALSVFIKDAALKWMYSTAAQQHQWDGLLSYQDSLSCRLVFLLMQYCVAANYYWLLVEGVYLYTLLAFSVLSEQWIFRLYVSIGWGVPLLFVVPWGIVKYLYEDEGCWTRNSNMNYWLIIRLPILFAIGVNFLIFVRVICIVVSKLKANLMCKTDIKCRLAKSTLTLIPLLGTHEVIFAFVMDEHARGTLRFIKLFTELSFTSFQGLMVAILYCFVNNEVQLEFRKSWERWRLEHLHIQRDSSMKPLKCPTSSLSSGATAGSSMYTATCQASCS
T1 sequence (P43220 24-463 L260F): as the sequence (P43220 24-463) above, with L237F counted along it

CC(C)(C)OCCn1c(CN2CCN(c3cccc(OCc4ccc(C#N)cc4F)n3)[C@@H]3CC[C@@H]32)nc2ccc(C(=O)O)cc21 (racemic) [Example 10, rac-1-(2-(tert-Butoxy)ethyl)-2-(((1R,6S)-5-(6-((4-cyano-2-fluorobenzyl)oxy)pyridin-2-yl)-2,5-diazabicyclo[4.2.0]octan-2-yl)methyl)-1H-benzo[d]imidazole-6-carboxylic acid]
EC50 (human GLP-1R receptor): 370 nM

Cc1nccn1CCn1c(CN2CCN(c3cccc(OCc4ccc(Cl)cc4F)n3)[C@@H]3COC[C@@H]32)nc2ccc(C(=O)O)cc21 (single isomer, unassigned) [Example 25a]
EC50 (human GLP-1R receptor): 110 nM
EC50 (GLP-1R): 170 nM

N#Cc1ccc(COc2cccc(N3CCN(Cc4nc5c(Cl)cc(C(=O)O)cc5n4C[C@@H]4CCO4)[C@H]4CC[C@H]43)n2)c(F)c1 (single isomer, unassigned) [Example 6b]
EC50 (human GLP-1R receptor): 95 nM
EC50 (GLP-1R): 57 nM

CCCCOCCn1c(CN2CCN(c3cccc(OCc4ccc(C#N)cc4F)n3)[C@@H]3CC[C@@H]32)nc2ccc(C(=O)O)cc21 (racemic) [Example 11, rac-1-(2-Butoxyethyl)-2-(((1R,6S)-5-(6-((4-cyano-2-fluorobenzyl)oxy)pyridin-2-yl)-2,5-diazabicyclo[4.2.0]octan-2-yl)methyl)-1H-benzo[d]imidazole-6-carboxylic acid]
EC50 (human GLP-1R receptor): 150 nM

O=C(O)c1cc(F)c2nc(CN3CCN(c4cccc(OCc5ccc(Cl)cc5F)n4)[C@@H]4COC[C@@H]43)n(C[C@H]3CCOC3)c2c1 (single isomer, unassigned) [Example 18b]
EC50 (human GLP-1R receptor): 57 nM
EC50 (GLP-1R): 15 nM

Cc1nccn1CCn1c(CN2CCN(c3cccc(OCc4ccc(Cl)cc4F)n3)[C@@H]3COC[C@@H]32)nc2c(F)cc(C(=O)O)cc21 (single isomer, unassigned) [Example 23]
EC50 (human GLP-1R receptor): 170 nM
EC50 (GLP-1R): 110 nM

N#Cc1ccc(COc2cccc(N3CCN(Cc4nc5cc(Cl)c(C(=O)O)cc5n4C[C@@H]4CCO4)[C@H]4CC[C@H]43)n2)c(F)c1 (single isomer, unassigned) [Example 7b]
EC50 (human GLP-1R receptor): 90 nM
EC50 (GLP-1R): 40 nM

O=C(O)c1ccc2nc(CN3CCN(c4cccc(OCc5ccc(Cl)cc5F)n4)[C@@H]4COC[C@@H]43)n(Cc3cccnc3)c2c1 (single isomer, unassigned) [Example 21]
EC50 (human GLP-1R receptor): 74 nM
EC50 (GLP-1R): 71 nM

O=C(O)c1ccc2nc(CN3CCN(c4cccc(OCc5ccc(Cl)cc5F)n4)[C@@H]4COC[C@@H]43)n(Cc3cocn3)c2c1 (single isomer, unassigned) [Example 20]
EC50 (human GLP-1R receptor): 35 nM
EC50 (GLP-1R): 37 nM

O=C(O)c1ccc2nc(CN3CCN(c4cccc(OCc5ccc(Cl)cc5F)n4)[C@@H]4COC[C@@H]43)n(C[C@@H]3CCO3)c2c1 (racemic) [Example 15, 2-(((4aRS,7aSR)-4-(6-((4-Chloro-2-fluorobenzyl)oxy)pyridin-2-yl)hexahydrofuro[3,4-b]pyrazin-1(2H)-yl)methyl)-1-(((S)-oxetan-2-yl)methyl)-1H-benzo[d]imidazole-6-carboxylic acid]
EC50 (human GLP-1R receptor): 3.3 nM
EC50 (GLP-1R): 14 nM

N#Cc1ccc(COc2cccc(N3CCN(Cc4nc5ccc(C(=O)O)c(Cl)c5n4C[C@@H]4CCO4)[C@H]4CC[C@H]43)n2)c(F)c1 (single isomer, unassigned) [Example 8b]
EC50 (human GLP-1R receptor): 28 nM
EC50 (GLP-1R): 41 nM

Cc1ccnc(Cn2c(CN3CCN(c4cccc(OCc5ccc(C#N)cc5F)n4)[C@@H]4CC[C@@H]43)nc3ccc(C(=O)O)cc32)c1 (racemic) [Example 14, rac-2-(((1R,6S)-5-(6-((4-Cyano-2-fluorobenzyl)oxy)pyridin-2-yl)-2,5-diazabicyclo[4.2.0]octan-2-yl)methyl)-1-((4-methylpyridin-2-yl)methyl)-1H-benzo[d]imidazole-6-carboxylic acid]
EC50 (human GLP-1R receptor): 400 nM
EC50 (GLP-1R): 2800 nM

N#Cc1ccc(COc2cccc(N3CCN(Cc4nc5ccc(C(=O)O)c(Cl)c5n4C[C@@H]4CCO4)[C@H]4CC[C@H]43)n2)c(F)c1 (single isomer, unassigned) [Example 8a]
EC50 (human GLP-1R receptor): 6.1 nM
EC50 (GLP-1R): 28 nM

N#Cc1ccc(COc2cccc(N3CCN(Cc4nc5cc(Cl)c(C(=O)O)cc5n4C[C@@H]4CCO4)[C@H]4CC[C@H]43)n2)c(F)c1 (single isomer, unassigned) [Example 7c]
EC50 (human GLP-1R receptor): 250 nM

Cc1nccn1CCn1c(CN2CCN(c3cccc(OCc4ccc(Cl)cc4F)n3)[C@@H]3COC[C@@H]32)nc2ccc(C(=O)O)cc21 (single isomer, unassigned) [Example 25b]
EC50 (human GLP-1R receptor): 250 nM
EC50 (GLP-1R): 1100 nM

Cc1cc(Cn2c(CN3CCN(c4cccc(OCc5ccc(C#N)cc5F)n4)[C@@H]4CC[C@@H]43)nc3ccc(C(=O)O)cc32)no1 (racemic) [Example 13, rac-2-(((1R,6S)-5-(6-((4-Cyano-2-fluorobenzyl)oxy)pyridin-2-yl)-2,5-diazabicyclo[4.2.0]octan-2-yl)methyl)-1-((5-methylisoxazol-3-yl)methyl)-1H-benzo[d]imidazole-6-carboxylic acid]
EC50 (human GLP-1R receptor): 110 nM
EC50 (GLP-1R): 100 nM

N#Cc1ccc(COc2cccc(N3CCN(Cc4nc5c(F)cc(C(=O)O)cc5n4C[C@@H]4CCO4)[C@H]4CC[C@@H]43)n2)c(F)c1 (single isomer, unassigned) [Example 3a, 2-(((1R*,6R*)-5-(6-((4-Cyano-2-fluorobenzyl)oxy)pyridin-2-yl)-2,5-diazabicyclo[4.2.0]octan-2-yl)methyl)-4-fluoro-1-(((S)-oxetan-2-yl)methyl)-1H-benzo[d]imidazole-6-carboxylic acid]
EC50 (human GLP-1R receptor): 23 nM
EC50 (GLP-1R): 13 nM

CCn1cncc1Cn1c(CN2CCN(c3cccc(OCc4ccc(Cl)cc4F)n3)[C@H]3CC[C@@H]32)nc2c(OC)cc(C(=O)O)cc21 (single isomer, unassigned) [Example 12a]
EC50 (human GLP-1R receptor): 2.2 nM

— patent US20250115612A1, “CERTAIN 2,5-DIAZABICYCLO[4.2.0]OCTANES AND OCTAHYDROFURO[3,4-B]PYRAZINES AS GLP-1 RECEPTOR MODULATORS” (ASTRAZENECA AB, priority 2021, published 2025)
